80 compounds from the PolyMetriX glass transition set can be followed below.

Regarding `*/C(C)=C(/*)SCCCCCCCCCC` (repeat unit), the glass transition temperature is 60.00 °C.

In turn, `*=Nc1cccc(S(=O)(=O)c2cccc(/N=C3/OC(=O)c4ccc(Oc5ccc6c(c5)C(=O)OC6=*)cc43)c2)c1` (repeat unit) returned a glass transition temperature of 190.00 °C.

Turning to `*C#Cc1cccc(C#C[SiH](*)C)c1` (repeat unit), the glass transition temperature was 72.00 °C.

For the compound `*C(=O)c1ccc2c(c1)/C(=N\c1cccc(Oc3cccc(Oc4cccc(/N=C5/OC(=O)c6ccc(*)cc65)c4)c3)c1)OC2=O` (repeat unit), the glass transition temperature worked out at 190.00 °C.

As for `*CC(*)(F)C(=O)OCCC(F)(F)C(F)(F)C(F)(F)C(F)(F)C(F)(F)C(F)(F)C(F)(F)C(F)(F)C(F)(F)C(F)(F)F` (repeat unit), the glass transition temperature came out at 53.00 °C.

`*CC(*)C(=O)N(C)C` (repeat unit) registered a glass transition temperature of 114.00 °C.

`*CC(*)C(=O)N1CCCCC1` (repeat unit) came in with a glass transition temperature of 108.00 °C.

Turning to `*CC(*)C(=O)N1CCOCC1` (repeat unit), the glass transition temperature amounted to 150.00 °C.

Consider `*CC(*)C(=O)NC(C)(C)CS(=O)(=O)O` (repeat unit), for which the glass transition temperature came out at 85.00 °C.

Take `*CC(*)C(=O)Nc1ccc(C(=O)/C=C/c2ccc(Br)cc2)cc1` (repeat unit): the glass transition temperature came to 64.00 °C.

For the compound `*CC(*)C(=O)Nc1ccc2c(c1)C(=O)c1ccccc1C2=O` (repeat unit), the glass transition temperature was 128.00 °C.

The compound `*CC(*)C(=O)OC(C(F)(F)F)C(F)(F)F` (repeat unit) yielded a glass transition temperature of 42.30 °C.

With `*CC(*)C(=O)OC(Cl)C(Cl)(Cl)Cl` (repeat unit), the glass transition temperature was 70.50 °C.

For `*CC(*)C(=O)OC(OCC)C(F)(F)F` (repeat unit), the glass transition temperature was 5.00 °C.

`*CC(*)C(=O)OC12CC3CC(C)(CC(C)(C3)C1)C2` (repeat unit) displayed a glass transition temperature of 104.00 °C.

Take `*CC(*)C(=O)OCC(C)CC` (repeat unit): the glass transition temperature is -32.00 °C.

As to `*CC(*)C(=O)OCC(C)O` (repeat unit), the glass transition temperature is -7.00 °C.

In turn, `*CC(*)C(=O)OCC(F)(F)C(F)(F)C(F)(F)C(F)(F)F` (repeat unit) came in with a glass transition temperature of -37.00 °C.

The compound `*CC(*)C(=O)OCC(F)(F)C(F)(F)C(F)(F)C(F)F` (repeat unit) registered a glass transition temperature of -35.00 °C.

As to `*CC(*)C(=O)OCC(F)(F)C(F)(F)OC(F)(F)C(F)(F)C(F)(F)C(F)(F)F` (repeat unit), the glass transition temperature was -68.00 °C.

Turning to `*CC(*)C(=O)OCC(F)(F)C(F)(F)OC(F)(F)F` (repeat unit), the glass transition temperature was -55.00 °C.

For the compound `*CC(*)C(=O)OCC(F)(F)C(F)C(F)(F)F` (repeat unit), the glass transition temperature is -22.00 °C.

As to `*CC(*)C(=O)OCC1(CC)COCOC1` (repeat unit), the glass transition temperature turned out to be 42.00 °C.

For the compound `*CC(*)C(=O)OCCC(F)(F)C(F)(F)C(F)(F)C(F)(F)C(F)(F)C(F)(F)F` (repeat unit), the glass transition temperature is -12.00 °C.

Regarding `*CC(*)C(=O)OCCCCC` (repeat unit), the glass transition temperature was -57.00 °C.

`*CC(*)C(=O)OCCCCCCCCCCCCOC(=O)c1ccc(OC(=O)c2ccc(C#N)cc2)cc1` (repeat unit) showed a glass transition temperature of 15.00 °C.

Consider `*CC(*)C(=O)OCCCCCCCCCCCCOc1ccc(C(=O)Oc2ccc(-c3cccc(OC(=O)c4ccc(OC(=O)c5ccc(OCCCCCCCCCCCC)cc5)cc4)c3)cc2)cc1` (repeat unit), for which the glass transition temperature is 67.00 °C.

`*CC(*)C(=O)OCCCCCCCCCCCn1c2ccccc2c2ccccc21` (repeat unit): the glass transition temperature stood at 15.00 °C.

On to `*CC(*)C(=O)OCCCCCCCCCCOC(=O)c1ccc(OC(=O)c2ccc(C#N)cc2)cc1` (repeat unit), for which the glass transition temperature came to 15.00 °C.

As to `*CC(*)C(=O)OCCCCCCOC(=O)c1ccc(OC(=O)c2ccc(C#N)cc2)cc1` (repeat unit), the glass transition temperature came to 30.00 °C.

`*CC(*)C(=O)OCCCCCCOc1ccc(/C=N/c2ccc(OCCCCC)cc2)c(O)c1` (repeat unit): the glass transition temperature amounted to 41.00 °C.

The compound `*CC(*)C(=O)OCCCCCCOc1ccc(/N=N/c2ccc([N+](=O)[O-])cc2)cc1` (repeat unit) yielded a glass transition temperature of 35.80 °C.

Take `*CC(*)C(=O)OCCCCCCOc1ccc(C(=O)Oc2ccc(C#N)cc2)cc1` (repeat unit): the glass transition temperature came to 19.50 °C.

For the compound `*CC(*)C(=O)OCCCCCCSCC#N` (repeat unit), the glass transition temperature was -59.00 °C.

As for `*CC(*)C(=O)OCCCCCn1c2ccccc2c2ccccc21` (repeat unit), the glass transition temperature worked out at 53.00 °C.

Compound `*CC(*)C(=O)OCCCCSC` (repeat unit) displayed a glass transition temperature of -70.00 °C.

In the case of `*CC(*)C(=O)OCCCCn1c2ccccc2c2ccccc21` (repeat unit), the glass transition temperature is 68.00 °C.

The compound `*CC(*)C(=O)OCCCOc1ccc(C(=O)OCCCC(F)(F)C(F)(F)C(F)(F)C(F)(F)C(F)(F)C(F)(F)C(F)(F)C(F)(F)F)cc1` (repeat unit) displayed a glass transition temperature of 48.00 °C.

As for `*CC(*)C(=O)OCCCSCCC#N` (repeat unit), the glass transition temperature is -58.00 °C.

`*CC(*)C(=O)OCCOC` (repeat unit) came in with a glass transition temperature of -34.00 °C.

`*CC(*)C(=O)OCCOCC(F)(F)C(F)(F)C(F)(F)F` (repeat unit) returned a glass transition temperature of -45.00 °C.

Compound `*CC(*)C(=O)OCCOc1ccc(C(=O)Oc2ccc(OC(=O)c3ccc(OCCCC)cc3)cc2)cc1` (repeat unit) displayed a glass transition temperature of 45.00 °C.

Turning to `*CC(*)C(=O)OCCn1c2ccccc2c2ccccc21` (repeat unit), the glass transition temperature was found to be 106.80 °C.

As to `*CC(*)C(=O)OCF` (repeat unit), the glass transition temperature amounted to 15.00 °C.

As to `*CC(*)C(=O)OCc1ccc(C#N)cc1` (repeat unit), the glass transition temperature came to 44.00 °C.

`*CC(*)C(=O)[O][Na]` (repeat unit) returned a glass transition temperature of 114.40 °C.

`*CC(*)C(=O)Oc1ccc(/N=N/c2ccc([N+](=O)[O-])cc2)cc1` (repeat unit): the glass transition temperature came out at 134.00 °C.

For `*CC(*)C(=O)Oc1ccc(C(=O)O)cc1` (repeat unit), the glass transition temperature amounted to 125.00 °C.

`*CC(*)C(=O)Oc1ccc(C(=O)OC)cc1` (repeat unit) returned a glass transition temperature of 67.00 °C.

In the case of `*CC(*)C(=O)Oc1ccc(C)cc1` (repeat unit), the glass transition temperature amounted to 42.50 °C.

`*CC(*)C(=O)Oc1ccc(Cl)cc1Cl` (repeat unit) returned a glass transition temperature of 60.00 °C.

For the compound `*CC(*)C(=O)Oc1cccc(N(C)C)c1` (repeat unit), the glass transition temperature is 47.00 °C.

Compound `*CC(*)C(=O)Oc1ccccc1` (repeat unit) came in with a glass transition temperature of 60.00 °C.

The compound `*CC(*)C(=O)Oc1ccccc1C(=O)OC` (repeat unit) had a glass transition temperature of 46.00 °C.

With `*CC(*)C(=O)Oc1ccccc1C(=O)OCC` (repeat unit), the glass transition temperature was determined as 30.00 °C.

In turn, `*CC(*)C(=O)Oc1ccccc1C(C)(C)C` (repeat unit) displayed a glass transition temperature of 72.00 °C.

In turn, `*CC(*)C(=O)Oc1ccccc1Cl` (repeat unit) came in with a glass transition temperature of 318.00 °C.

`*CC(*)C(=O)c1ccc(Br)cc1` (repeat unit) yielded a glass transition temperature of 101.50 °C.

`*CC(*)C(=O)c1ccc(C(C)C)cc1` (repeat unit) showed a glass transition temperature of 62.50 °C.

Regarding `*CC(*)C(=O)c1ccc(C)cc1` (repeat unit), the glass transition temperature worked out at 59.50 °C.

For `*CC(*)C(=O)c1ccc(OC)cc1` (repeat unit), the glass transition temperature is 46.00 °C.

Consider `*CC(*)C1=NCCN1` (repeat unit), for which the glass transition temperature was -48.3 °C.

In the case of `*CC(*)C1CCC(C)CC1` (repeat unit), the glass transition temperature stood at 132.00 °C.

`*CC(*)CCC1CCCCC1` (repeat unit) gave a glass transition temperature of 40.00 °C.

The compound `*CC(*)CCCC` (repeat unit) yielded a glass transition temperature of -50.00 °C.

In turn, `*CC(*)CCCCCCCCCC` (repeat unit) displayed a glass transition temperature of -6.00 °C.

`*CC(*)CCCCCCCCCCCCCC` (repeat unit) registered a glass transition temperature of -24.00 °C.

Regarding `*CC(*)CCCCCCCCCCCCCCCC` (repeat unit), the glass transition temperature worked out at 55.00 °C.

Consider `*CC(*)CCCCCCCCCCCCCCCCCC` (repeat unit), for which the glass transition temperature is -88.00 °C.

Compound `*CC(*)CCc1ccccc1` (repeat unit) showed a glass transition temperature of 10.00 °C.

Compound `*CC(*)CNc1ccc([N+](=O)[O-])c(C(F)(F)F)c1` (repeat unit) gave a glass transition temperature of 153.00 °C.

`*CC(*)CNc1ccc([N+](=O)[O-])cc1` (repeat unit): the glass transition temperature was 144.00 °C.

Turning to `*CC(*)CNc1ccc([N+](=O)[O-])cn1` (repeat unit), the glass transition temperature worked out at 151.00 °C.

For `*CC(*)Cc1ccc(C)cc1` (repeat unit), the glass transition temperature turned out to be 65.00 °C.

`*CC(*)Cc1cccc(C)c1` (repeat unit) came in with a glass transition temperature of 40.00 °C.

As to `*O[Si](C)(C)C#Cc1ccc(C#C[Si](*)(C)C)cc1` (repeat unit), the glass transition temperature came out at 126.00 °C.

Turning to `*O[Si](C)(C)O[Si](C)(C)C#Cc1ccc(C#C[Si](*)(C)C)cc1` (repeat unit), the glass transition temperature is 104.00 °C.

`*O[Si](C)(C)O[Si](C)(C)O[Si](C)(C)C#Cc1ccc(C#C[Si](*)(C)C)cc1` (repeat unit) gave a glass transition temperature of 96.00 °C.

`*O[Si](C)(C)O[Si](C)(C)O[Si](C)(C)O[Si](C)(C)C#Cc1ccc(C#C[Si](*)(C)C)cc1` (repeat unit) yielded a glass transition temperature of 84.00 °C.

Turning to `*O[Si](C)(C)O[Si](C)(C)O[Si](C)(C)O[Si](C)(C)O[Si](C)(C)C#Cc1ccc(C#C[Si](*)(C)C)cc1` (repeat unit), the glass transition temperature is 78.00 °C.
